Measurements: patent US20260365698A1, “STAPLED PEPTIDES FOR SENSITIZATION OF CANCER TO TREATMENT” (Purdue Research Foundation, priority 2022, published 2026)
Bridge positions count the residues as written; N and C are the ends. Square brackets hold non-standard residues; d marks the D form. Peptide text beside a SMILES is read from it. S5 = C=CCCC[C@](C)(N)C(=O)O

System: proteinase K
Assay: Proteinase K peptide stability assay
Conditions: 55 μM peptide, 10 μg/mL proteinase K; some significant degradation
Procedure: Data are from three independent replicates with standard error indicated. Scale bar indicates 50 μm.
Peptide stability assays were performed using the protocols described in Cromm et al., Protease-resistant and cell-permeable double-stapled peptides targeting the Rab8a GTPase, ACS Chemical Biology 11(8): 2375-2382 (2016). Briefly, 55 μM of peptide was incubated with 10 μg/mL proteinase K for the indicated timepoints. At the end of each time point, 50 μL of the reaction mixture were quenched in 100 μL of a 1:1 mixture acetonitrile/water+1% formic acid (FA). Samples were injected and analyzed on a Triple quad. Analysis was done using an Agilent Technologies 1200 Series attached to an Agilent Technologies 6460 Triple Quad LC/MS. Analysis was performed with a ZORBAX XDB-C18 […], 2.1×50 mm column (Agilent Technologies, Inc., Santa Clara, CA). Eluent A: H2O with 0.1% FA. Eluent B: MeCN with 0.1% FA. Purity analysis utilized the gradient as follows: (A:B, 0.3 mL/min): 95:5, 0 minutes; 95:5, 1 minute; 5:95, 5 minutes; 5:95, 8 minutes: 95:5, 8.5 minutes; 95:5, 12.5 minutes.

time at which significant degradation starts: 24 h
SMILES: CC[C@H](C)[C@H](NC(C)=O)C(=O)N[C@H](C(=O)N[C@@H](CCC(=O)O)C(=O)N[C@@H](CC(C)C)C(=O)N[C@@H](CCC(=O)O)C(=O)N[C@@]1(C)CCCC=CCCC[C@@](C)(C(=O)N[C@@H](CC(C)C)C(=O)N[C@@H](CCCCN)C(=O)N[C@@H](CC(=O)O)C(=O)N[C@@H](CCC(=O)O)C(=O)N[C@@H](CCCCN)C(=O)N[C@@H](CCC(=O)O)C(N)=O)NC(=O)[C@H](CC(=O)O)NC(=O)[C@H](CC(C)C)NC(=O)[C@H](CC(=O)O)NC1=O)C(C)C [N1S] (Ac-IVELE[S5]DLD[S5]LKDEKE-NH2; staple 6-10)
